Results on one substance are retold here after patent US10806164B2 (priority 2016, dated 2020).

Marks after values point to notes of the source that are not given here.

For data set [1] the following is noted: rat, in vivo.
The conditions of data set [2]: rat, in vivo. The source holds these as a separate data set.

For the substance Deoxynivalenol [DON], in data set [1], the “Effect on consumption of food” value is “affected the consumption of food”, the “Food consumption Means ± standard error” value is reported as 569 ± 19.1 ^b, the “Food consumption from 0 to 7 days” value is given as 98 ± 4.75 ^a and the “Food consumption from 7 to 14 days” value was 109 ± 4.84 ^a. In data set [1], the “Food consumption from 14 to 21 days” value is recorded as 109 ± 5.41 ^b, the “Food consumption from 21 to 28 days” value was 121 ± 4.83 ^b, the “Food consumption from 28 to 35 days” value is 132 ± 3.10 ^b and the “Food conversion Means ± standard error” value was 5.22 ± 0.195 ^b. In data set [1], the “Gain of weight from 0 to 7 days” value is 24 ± 2.45 ^b, the “Gain of weight from 7 to 14 days” value is given as 24 ± 3.04 ^a, the “Gain of weight from 14 to 21 days” value was 21 ± 2.92 ^a and the “Gain of weight from 21 to 28 days” value is on record as 13 ± 3.89 ^b. For the same substance, in data set [1], the “Gain of weight from 28 to 35 days” value is 27 ± 3.63 ^a and the “Weight gain Means ± standard error” value is given as 109 ± 6.61 ^b g. For the same substance, in data set [2], the “Consumption food Means ± Standard error” value is given as 511 ± 5.71 ^b.
